Here are results for 8 molecules from patent publication US9669060B2, “Compositions for preventing and treating uterine disease” (CORNELL UNIVERSITY, priority 2009, dated 2017).

In brackets after ≈: the same amount, converted by molar mass. Read-outs that look alike come from different tables or passages of the source.

Experiment [1] deals with Escherichia coli recovered from uterine secretion from Holstein dairy cows (n = 80 isolates). Briefly: Antimicrobial susceptibility assay, MIC by broth microdilution (CLSI). The class given is cell-based. The conditions noted are these: for MIC50 / MIC90: Escherichia coli, 18 hours at 37° C.; for MIC50: MIC that inhibits at least 50% of isolates; for MIC90: MIC that inhibits at least 90% of isolates. Here is the method:
The MIC determinations were performed by broth microdilution method as described by the Clinical and Laboratory Standards Institute (CLSI, 2008) recommendations. […] The dilutions for each antimicrobial tested ranged from 0.25 μg/ml to 256 μg/ml for all the antibiotics and all tests were performed in duplicates. The cultures were diluted in Mueller-Hinton broth to 10^5 CFU/ml and an aliquot of 200 μl of the diluted culture was added to microtiter plate wells, containing various concentrations of the antimicrobials, to a total volume of 300 μl per well. The assays were carried out in duplicates and the required controls of adequacy of the broth to support the growth of the microorganism and the sterility of the broth done.
In addition to the uterine E. coli isolates tested, the reference strain of E. coli ATCC 25922 was included as quality control for MIC determination, as recommended by the CLSI (CLSI, 2008). The MIC that inhibits at least 50% (MIC50) and at least 90% (MIC90) of the isolates, as well as the minimum and maximum MIC, were also derived.
(Dilution methods test growth across graded concentrations, often in twofold steps.)

Experiment [2] concerns Escherichia coli isolated from the uterus of postpartum Holstein dairy cows (57 isolates). The experiment is described as follows: Kinetic (spectrophotometric) MIC and growth curve test with antimicrobials. The class given is cell-based. The settings on record: for MIC: Escherichia coli, minimum concentration that completely inhibited growth for 2-3 hours after beginning of stationary phase of control, estimated from graphics, read-out: Mean MICs; for Mean OD600: growth curve during 10 hours at 37° C., Mueller-Hinton broth. The text has this: Growth was periodically assessed spectrophotometrically in a microplate reader (Synergy™ 2, BioTek) at 600 nm. Curves were plotted with average of the duplicates. The results of this kinetic test were statistically analyzed to derive the mean MIC (mMIC) of the isolates for each antimicrobial tested.
A general linear mixed model was used to analyze the effect of the different antibiotic concentrations and bacteriophage MOIs on the growth curve of 57 E. coli isolates and determinate the mean values. The outcome variable was the OD600 of the Mueller-Hinton (BBL™) broth culture, which was modeled as a Gaussian (normally distributed data) variable. The assumption that the residuals were normally distributed was satisfied by visually evaluating the distribution plot of the studentized residuals. The independent variables offered to the model were: treatment (bacteriophage cocktail and all antimicrobials tested) and time (from 1 until 10). The interaction of treatment and time was also included in the model. […] This implies that data points were correlated within each E. coli isolate. To account appropriately for within correlation of the optical density, we modeled the error term by imposing a first-order autoregressive covariance structure. Variables and interaction were considered significant when their P-values<0.05.

Another experiment deals with E. coli from calves. The settings on record: cited from earlier work.
The subject of another experiment is uropathogenic E. coli. The settings on record: fimH immunization, murine model (Langermann et al., 1997); cited from earlier work.

What is called MIC50 is the lowest concentration that inhibits either 50% of growth or 50% of the strains tested, depending on the study. Higher therefore signals weaker potency. Usually MIC90 stands for an inhibitory concentration at the 90% level, which refers to growth in some studies and to a panel of isolates in others. Higher therefore signals weaker potency. Regarding `CC1(C)S[C@@H]2[C@H](NC(=O)[C@H](N)c3ccccc3)C(=O)N2[C@H]1C(=O)O` [Ampicillin, ampicillin], in experiment [1], the “isolates resistant (CLSI criteria)” value was found to be 33.7%, the MIC50 was found to be 16 µg/mL (≈ 45.8 µM) and the MIC90 was found to be 32 µg/mL (≈ 91.6 µM). Further, in experiment [2], the MIC was 16 µg/mL and the “Mean OD600” value is 0.14. Moreover, the “occurrence of ampicillin-resistant E. coli” value with E. coli from calves (feces of healthy lactating dairy calves (Sawant et al., 2007)) was 48%.

For `CO/N=C(\C(=O)N[C@@H]1C(=O)N2C(C(=O)O)=C(CSC(=O)c3ccco3)CS[C@H]12)c1csc(N)n1` [Ceftiofur, ceftiofur], in experiment [1], the “isolates resistant (CLSI criteria)” value is listed as 1.2%, the isolates susceptible is recorded as 98.7%, the MIC50 is 1 µg/mL (≈ 1.91 µM) and the MIC90 amounted to 1 µg/mL (≈ 1.91 µM). Also, in experiment [2], the MIC was 16 µg/mL and the “Mean OD600” value is reported as 0.05. For the same molecule, the “prevalence rate of ceftiofur-resistant E. coli” value in the experiment with E. coli from calves (Bradford et al., 1999) is 11%. For the same molecule, the “prevalence rate of ceftiofur-resistant E. coli” value in the experiment with E. coli from calves (Sawant et al., 2007) is given as 13%. Further, the “occurrence of ceftiofur-resistant E. coli” value with E. coli from calves (diarrheic calves (White et al.)) is on record as 69%.

As for `O=C(N[C@H](CO)[C@H](O)c1ccc([N+](=O)[O-])cc1)C(Cl)Cl` [Chloramphenicol, chloramphenicol], in experiment [1], the “isolates resistant (CLSI criteria)” value is listed as 100%, the MIC50 amounted to 64 µg/mL (≈ 198 µM) and the MIC90 was 128 µg/mL (≈ 396 µM). For the same molecule, in experiment [2], the MIC is 128 µg/mL and the “Mean OD600” value stood at 0.18.

Regarding `CS(=O)(=O)c1ccc([C@@H](O)[C@@H](CF)NC(=O)C(Cl)Cl)cc1` [Florfenicol, florfenicol], in experiment [1], the “isolates resistant (CLSI criteria)” value was determined as 100%, the MIC50 was 16 µg/mL (≈ 44.7 µM) and the MIC90 worked out at 16 µg/mL (≈ 44.7 µM). For the same molecule, in experiment [2], the MIC was 16 µg/mL and the “Mean OD600” value came to 0.10. Moreover, the “E. coli isolates resistant to both florfenicol and chloramphenicol” value in the experiment on E. coli from calves (diarrheic dairy calves (White et al., 2000)) is 85%.

Consider `CN[C@@H]1[C@H](O)[C@H](NC)[C@H]2O[C@@]3(O)C(=O)C[C@@H](C)O[C@H]3O[C@@H]2[C@H]1O` [Spectinomycin, spectinomycin], for which, in experiment [1], the “isolates resistant (CLSI criteria)” value was “none of them were resistant”, the MIC50 amounted to 32 µg/mL (≈ 96.3 µM) and the MIC90 amounted to 64 µg/mL (≈ 193 µM). Also, in experiment [2], the MIC is 32 µg/mL and the “Mean OD600” value is reported as 0.17.

As to `[H]/N=C(/N)N[C@H]1[C@H](O)[C@@H](O)[C@H](O[C@@H]2O[C@@H](C)[C@](O)(C=O)[C@H]2O[C@@H]2O[C@@H](CO)[C@H](O)[C@@H](O)[C@@H]2NC)[C@@H](N/C(N)=N\[H])[C@@H]1O` [Streptomycin, streptomycin], in experiment [1], the “isolates resistant (CLSI criteria)” value was “none of them were resistant”, the MIC50 was found to be 8 µg/mL (≈ 13.8 µM) and the MIC90 is 8 µg/mL (≈ 13.8 µM). In addition, in experiment [2], the MIC is 8 µg/mL and the “Mean OD600” value is listed as 0.11.

Consider `CN(C)[C@@H]1C(O)=C(C(N)=O)C(=O)[C@@]2(O)C(O)=C3C(=O)c4c(O)cccc4[C@@](C)(O)[C@H]3C[C@@H]12` [Tetracycline, tetracycline], for which, in experiment [1], the MIC50 was found to be 1 µg/mL (≈ 2.25 µM) and the MIC90 is 2 µg/mL (≈ 4.5 µM). Further, in experiment [2], the MIC is 2 µg/mL and the “Mean OD600” value stood at 0.05.

Take “fimH: fimH adhesin of type 1 pili used for immunization in a murine model (Langermann et al., 1997)”: the “prevention of in vivo colonization of the bladder mucosa” value in the experiment on uropathogenic E. coli was 99%.
